Data: patent publication US11345762B2, “Method for preparing liquid medium composition, and preparation device and kit therefor” (NISSAN CHEMICAL INDUSTRIES, LTD., priority 2015, dated 2022)

Tested on: Human pancreatic cancer cell line Panc02,03
Assay: Proliferation action on Panc02,03 cell stimulated by each growth factor (ATP, CellTiter-Glo)
Format: cell-based

Substance	% control of RLU value (ATP measurement, luminescence intensity) (Panc02,03, 10 ng/mL, medium composition of Example 13, on day 6 (head)) [% Control]	% control of RLU value (ATP measurement, luminescence intensity) (Panc02,03, 10 ng/mL, monolayer culture group, culture conditions on day 6 (head)) [% Control]	% control of RLU value (ATP measurement, luminescence intensity) (Panc02,03, 10 ng/mL, negative control group (medium free of deacylated gellan gum, low adhesion plate), on day 6 (head)) [% Control]	% control of RLU value (ATP measurement, luminescence intensity) (Panc02,03, 100 ng/mL, medium composition of Example 13, on day 6 (head)) [% Control]	% control of RLU value (ATP measurement, luminescence intensity) (Panc02,03, 100 ng/mL, monolayer culture group, culture conditions on day 6 (head)) [% Control]	% control of RLU value (ATP measurement, luminescence intensity) (Panc02,03, 100 ng/mL, negative control group (medium free of deacylated gellan gum, low adhesion plate), on day 6 (head)) [% Control]	% control of RLU value (ATP measurement, luminescence intensity) (Panc02,03, 3 ng/mL, medium composition of Example 13, on day 6 (head)) [% Control]	% control of RLU value (ATP measurement, luminescence intensity) (Panc02,03, 3 ng/mL, monolayer culture group, culture conditions on day 6 (head)) [% Control]	% control of RLU value (ATP measurement, luminescence intensity) (Panc02,03, 3 ng/mL, negative control group (medium free of deacylated gellan gum, low adhesion plate), on day 6 (head)) [% Control]	% control of RLU value (ATP measurement, luminescence intensity) (Panc02,03, 30 ng/mL, medium composition of Example 13, on day 6 (head)) [% Control]	% control of RLU value (ATP measurement, luminescence intensity) (Panc02,03, 30 ng/mL, monolayer culture group, culture conditions on day 6 (head)) [% Control]	% control of RLU value (ATP measurement, luminescence intensity) (Panc02,03, 30 ng/mL, negative control group (medium free of deacylated gellan gum, low adhesion plate), on day 6 (head)) [% Control]
human FGF-2: growth factor, manufactured by PEPROTECH	107	108	118	100	102	99						
human TGF-β1: growth factor, manufactured by PEPROTECH							102	95	114	106	99	122
